Drawing on US20240335442A1 (Eurofarma Laboratórios S.A., priority 2021, published 2024), this text covers IC50 for 32 molecules.

Where only a bound is given, the exact number is not on record here.

For assay [1], the target named is human sodium channel Nav 1.8 (Homo sapiens (Human), UniProt Q9Y5Y9). Nature of the assay: Automated whole-cell voltage-clamp (ScreenPatch 384P), Nav 1.8 sodium current, Protocol 2. The assay is classed as cell-based. The following applies: read-out: Nav1.8 IC50. In outline: (§1)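 CHO cells stably expressing human Nav1.7 or Nav1.8, automated whole-cell clamp, room temperature, ≥5 min exposure at eight concentrations. Protocol 1: hold −90 mV, 0.1 Hz, test pulse 0 mV (Nav1.7) or 10 mV (Nav1.8). Protocol 2: hold −100 mV with 8 s −40 mV inactivating step, 0.05 Hz. IC50 from Hill fit of TP1A peak-current block, normalized to vehicle and positive control.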

The target of assay [2] is human sodium channel Nav 1.7 (Homo sapiens (Human), UniProt Q15858). Nature of the assay: Automated whole-cell voltage-clamp (ScreenPatch 384P), Nav 1.7 sodium current, Protocol 2. It counts as cell-based. The following applies: read-out: Nav1.7 IC50. Put shortly:
as §1

Chain of human sodium channel Nav 1.8 (Q9Y5Y9 whole entry): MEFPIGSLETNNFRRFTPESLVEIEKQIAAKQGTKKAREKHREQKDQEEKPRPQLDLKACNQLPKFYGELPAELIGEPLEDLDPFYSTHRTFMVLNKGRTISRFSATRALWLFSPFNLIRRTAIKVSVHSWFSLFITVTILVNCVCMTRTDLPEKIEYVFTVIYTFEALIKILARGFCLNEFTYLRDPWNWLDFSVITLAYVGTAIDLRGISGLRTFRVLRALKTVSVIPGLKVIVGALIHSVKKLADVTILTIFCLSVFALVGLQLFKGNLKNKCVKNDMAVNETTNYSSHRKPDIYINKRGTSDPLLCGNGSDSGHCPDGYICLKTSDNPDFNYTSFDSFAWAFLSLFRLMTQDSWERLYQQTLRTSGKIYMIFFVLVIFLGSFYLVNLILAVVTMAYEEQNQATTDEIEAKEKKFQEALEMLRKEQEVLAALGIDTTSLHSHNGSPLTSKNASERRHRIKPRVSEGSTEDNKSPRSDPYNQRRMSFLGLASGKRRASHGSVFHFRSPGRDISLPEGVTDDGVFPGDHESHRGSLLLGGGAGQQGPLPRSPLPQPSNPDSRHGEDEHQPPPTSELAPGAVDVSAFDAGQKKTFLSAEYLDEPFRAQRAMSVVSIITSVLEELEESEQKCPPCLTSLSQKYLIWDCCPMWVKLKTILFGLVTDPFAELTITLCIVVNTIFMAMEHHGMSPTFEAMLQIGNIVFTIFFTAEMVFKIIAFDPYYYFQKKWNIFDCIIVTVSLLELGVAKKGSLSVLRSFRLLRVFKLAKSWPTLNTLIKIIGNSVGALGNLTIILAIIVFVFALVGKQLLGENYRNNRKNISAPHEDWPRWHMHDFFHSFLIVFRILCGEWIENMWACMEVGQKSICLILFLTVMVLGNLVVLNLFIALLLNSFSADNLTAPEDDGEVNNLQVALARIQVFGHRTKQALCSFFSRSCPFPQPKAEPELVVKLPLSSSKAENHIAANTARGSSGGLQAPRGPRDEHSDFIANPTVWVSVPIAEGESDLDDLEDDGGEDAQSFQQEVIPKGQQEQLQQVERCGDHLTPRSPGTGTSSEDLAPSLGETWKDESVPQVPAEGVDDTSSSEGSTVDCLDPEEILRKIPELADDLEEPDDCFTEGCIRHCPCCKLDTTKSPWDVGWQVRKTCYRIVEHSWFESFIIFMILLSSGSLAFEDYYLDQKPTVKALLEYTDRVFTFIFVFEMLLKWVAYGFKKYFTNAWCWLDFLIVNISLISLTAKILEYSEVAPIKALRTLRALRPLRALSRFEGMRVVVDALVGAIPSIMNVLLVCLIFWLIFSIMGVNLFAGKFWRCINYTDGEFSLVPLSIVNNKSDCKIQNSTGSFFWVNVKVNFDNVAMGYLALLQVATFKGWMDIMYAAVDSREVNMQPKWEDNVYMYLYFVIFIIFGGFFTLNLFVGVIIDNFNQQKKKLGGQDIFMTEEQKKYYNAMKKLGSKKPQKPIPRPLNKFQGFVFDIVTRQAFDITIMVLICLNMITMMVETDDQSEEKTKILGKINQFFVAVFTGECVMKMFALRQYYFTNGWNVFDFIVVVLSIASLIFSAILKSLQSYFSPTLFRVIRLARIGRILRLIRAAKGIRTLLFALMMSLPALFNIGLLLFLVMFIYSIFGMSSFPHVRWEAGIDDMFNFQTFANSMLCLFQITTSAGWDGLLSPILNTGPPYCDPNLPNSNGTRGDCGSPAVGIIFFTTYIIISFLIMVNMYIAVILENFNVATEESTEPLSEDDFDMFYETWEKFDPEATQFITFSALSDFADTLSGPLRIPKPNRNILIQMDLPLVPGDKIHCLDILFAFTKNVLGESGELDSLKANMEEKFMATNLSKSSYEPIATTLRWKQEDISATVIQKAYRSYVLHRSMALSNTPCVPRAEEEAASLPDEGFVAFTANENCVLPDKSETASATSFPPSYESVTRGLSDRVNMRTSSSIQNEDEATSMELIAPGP
Chain of human sodium channel Nav 1.7 (Q15858 whole entry): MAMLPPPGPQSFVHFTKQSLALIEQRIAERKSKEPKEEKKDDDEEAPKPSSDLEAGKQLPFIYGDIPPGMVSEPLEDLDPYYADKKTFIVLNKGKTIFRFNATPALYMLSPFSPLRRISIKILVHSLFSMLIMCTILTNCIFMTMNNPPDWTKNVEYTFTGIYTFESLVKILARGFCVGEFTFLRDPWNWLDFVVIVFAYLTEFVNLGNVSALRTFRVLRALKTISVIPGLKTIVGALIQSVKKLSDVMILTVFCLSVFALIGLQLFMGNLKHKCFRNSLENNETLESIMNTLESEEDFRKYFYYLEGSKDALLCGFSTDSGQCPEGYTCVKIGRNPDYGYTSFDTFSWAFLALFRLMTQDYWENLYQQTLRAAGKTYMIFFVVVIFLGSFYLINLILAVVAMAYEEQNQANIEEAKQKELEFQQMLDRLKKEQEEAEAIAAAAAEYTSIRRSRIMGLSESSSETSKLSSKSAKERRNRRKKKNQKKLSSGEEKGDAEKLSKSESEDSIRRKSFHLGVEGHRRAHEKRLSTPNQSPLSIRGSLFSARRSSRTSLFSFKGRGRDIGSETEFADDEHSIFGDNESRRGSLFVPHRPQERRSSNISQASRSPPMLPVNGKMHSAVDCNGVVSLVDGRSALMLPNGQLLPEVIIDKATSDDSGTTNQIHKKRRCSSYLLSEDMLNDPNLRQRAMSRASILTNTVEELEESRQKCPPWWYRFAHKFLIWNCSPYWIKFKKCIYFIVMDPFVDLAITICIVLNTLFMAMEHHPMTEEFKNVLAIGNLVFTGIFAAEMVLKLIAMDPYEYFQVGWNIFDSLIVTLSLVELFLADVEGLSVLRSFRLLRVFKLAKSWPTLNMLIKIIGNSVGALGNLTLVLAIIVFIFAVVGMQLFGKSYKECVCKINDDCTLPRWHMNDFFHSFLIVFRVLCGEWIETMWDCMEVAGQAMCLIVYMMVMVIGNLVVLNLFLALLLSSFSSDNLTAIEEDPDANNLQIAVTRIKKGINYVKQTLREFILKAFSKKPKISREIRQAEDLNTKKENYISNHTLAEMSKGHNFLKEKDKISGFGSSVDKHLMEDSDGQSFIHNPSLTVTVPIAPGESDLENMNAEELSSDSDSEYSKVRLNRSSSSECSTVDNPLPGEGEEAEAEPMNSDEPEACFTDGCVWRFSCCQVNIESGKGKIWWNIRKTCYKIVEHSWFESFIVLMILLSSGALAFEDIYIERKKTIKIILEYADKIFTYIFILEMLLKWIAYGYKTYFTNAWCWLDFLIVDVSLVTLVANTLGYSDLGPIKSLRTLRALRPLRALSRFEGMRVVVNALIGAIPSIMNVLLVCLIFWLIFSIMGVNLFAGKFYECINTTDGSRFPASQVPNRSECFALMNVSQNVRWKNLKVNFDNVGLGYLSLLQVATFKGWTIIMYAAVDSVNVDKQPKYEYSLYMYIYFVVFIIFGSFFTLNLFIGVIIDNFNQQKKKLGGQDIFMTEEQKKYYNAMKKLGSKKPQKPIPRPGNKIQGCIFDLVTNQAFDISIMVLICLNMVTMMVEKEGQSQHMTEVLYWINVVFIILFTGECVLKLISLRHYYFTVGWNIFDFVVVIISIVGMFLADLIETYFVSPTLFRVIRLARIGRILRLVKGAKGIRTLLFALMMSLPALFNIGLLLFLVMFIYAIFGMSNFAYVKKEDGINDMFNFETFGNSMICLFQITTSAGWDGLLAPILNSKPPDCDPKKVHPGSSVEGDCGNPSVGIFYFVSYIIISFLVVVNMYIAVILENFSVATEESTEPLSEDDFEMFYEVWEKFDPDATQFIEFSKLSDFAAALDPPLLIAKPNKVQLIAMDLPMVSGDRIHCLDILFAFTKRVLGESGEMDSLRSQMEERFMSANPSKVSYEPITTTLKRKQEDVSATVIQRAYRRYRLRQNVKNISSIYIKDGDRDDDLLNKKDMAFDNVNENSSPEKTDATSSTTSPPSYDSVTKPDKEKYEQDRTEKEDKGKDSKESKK

As for `CCOc1ccc(-c2cnc(C)c(C(=O)N/N=C/c3cc(OC)cc(OC)c3)n2)cc1` [Compound 143, (E)-N′-(3,5-dimethoxybenzylidene)-6-(4-ethoxyphenyl)-3-methylpyrazine-2-carbohydrazide], the IC50 was determined as 0.65 µM in assay [1] and 5.15 µM in assay [2].
`CCOc1ccc(-c2cnc(CC)c(C(=O)N/N=C/c3cc(OC)cc(OC)c3)n2)cc1` [Compound 144, (E)-N′-(3,5-dimethoxybenzylidene)-6-(4-ethoxyphenyl)-3-ethylpyrazine-2-carbohydrazide]: the concentration for half-maximal inhibition (IC50) in assay [1] and in assay [2] was greater than 0.3 µM in each case.
Regarding `CCOc1ccc(-c2cnc(OC)c(C(=O)N/N=C/c3cc(OC)cc(OC)c3)n2)cc1` [Compound 145, (E)-N′-(3,5-dimethoxybenzylidene)-6-(4-ethoxyphenyl)-3-methoxypyrazine-2-carbohydrazide], the half-maximal inhibitory concentration (IC50) in assay [1] and in assay [2] was greater than 0.3 µM in each case.
With `CCOc1ccc(-c2cnc(Oc3ccccc3)c(C(=O)N/N=C/c3cc(OC)cc(OC)c3)n2)cc1` [Compound 146, (E)-N′-(3,5-dimethoxybenzylidene)-6-(4-ethoxyphenyl)-3-phenoxypyrazine-2-carbohydrazide], the IC50 in assay [1] and in assay [2] was greater than 0.3 µM throughout.
For the molecule `CCOc1ccc(-c2cnc(-c3ccccc3)c(C(=O)N/N=C/c3cc(OC)cc(OC)c3)n2)cc1` [Compound 147, (E)-N′-(3,5-dimethoxybenzylidene)-6-(4-ethoxyphenyl)-3-phenylpyrazine-2-carbohydrazide], the half-maximal inhibitory concentration (IC50) in assay [1] and in assay [2] was greater than 0.3 µM in each case.
Regarding `COc1cc(/C=N/NC(=O)c2cncc(-c3ccc(OCSC)cc3)n2)cc(OC)c1` [Compound 149, (E)-N′-(3,5-dimethoxybenzylidene)-6-(4-((methylthio)methoxy)phenyl)pyrazine-2-carbohydrazide], the 50% inhibitory concentration (IC50) in assay [1] came to 0.0609 µM; in assay [2], 0.123 µM.
With `Cc1cc(C)cc(/C=N/NC(=O)c2cncc(-c3ccc(OC4CCCC4)cc3)n2)c1` [Compound 150, (E)-6-(4-(cyclopentyloxy)phenyl)-N′-(3,5-dimethylbenzylidene)pyrazine-2-carbohydrazide], the IC50 in assay [1] came out at 0.118 µM; in assay [2] it was 0.121 µM.
In the same order, the values of `COc1cc(/C=N/NC(=O)c2cncc(-c3ccc(OCCN(C)C)cc3)n2)cc(OC)c1` [Compound 151, (E)-N′-(3,5-dimethoxybenzylidene)-6-(4-(2-(dimethylamino)ethoxy)phenyl)pyrazine-2-carbohydrazide] are greater than 1 µM and greater than 10 µM.
For `COc1cc(/C=N/NC(=O)c2cncc(-c3ccc(OCC4CC4)cc3)n2)cc(OC)c1` [Compound 152, (E)-6-(4-(cyclopropylmethoxy)phenyl)-N′-(3,5-dimethoxybenzylidene)pyrazine-2-carbohydrazide] the same measures were 0.0884 µM and 0.138 µM.
In the same order, the values of `CCOc1ccc(-c2cncc(C(=O)N/N=C/c3cccc(OC)c3)n2)c(OCC)c1` [Compound 153, (E)-6-(2,4-diethoxyphenyl)-N′-(3-methoxybenzylidene)pyrazine-2-carbohydrazide] are 0.121 µM and 0.228 µM.
On to `CCOc1ccc(-c2cncc(C(=O)N/N=C/c3cccc(OC)c3)n2)c(OC(C)C)c1` [Compound 154, (E)-6-(4-ethoxy-2-isopropoxyphenyl)-N′-(3-methoxybenzylidene)pyrazine-2-carbohydrazide], for which the figures for the IC50 in assay [1] and in assay [2] were greater than 1 µM and 1.39 µM, respectively.
For the molecule `COc1cc(/C=N/NC(=O)c2cncc(-c3ccc(OC)cc3OC(C)C)n2)cc(OC)c1` [Compound 156, (E)-N′-(3,5-dimethoxybenzylidene)-6-(2-isopropxy-4-methoxyphenyl)pyrazine-2-carbohydrazide], the IC50 was greater than 1 µM in assay [1] and 4.79 µM in assay [2].
Consider `COc1cc(/C=N/NC(=O)c2cncc(-c3ccc(OC4CCCC4)cc3Cl)n2)cc(OC)c1` [Compound 157, (E)-6-(2-chloro-4-(cyclopentyloxy)phenyl)-N′-(3,5-dimethoxybenzylidene)pyrazine-2-carbohydrazide], for which the half-inhibitory concentration (IC50) in assay [1] was 0.456 µM; in assay [2], 0.18 µM.
Consider `CCCCOc1ccc(-c2cncc(C(=O)N/N=C/c3cc(OC)cc(OC)c3)n2)c(Cl)c1` [Compound 158, (E)-6-(4-butoxy-2-chlorophenyl)-N′-(3,5-dimethoxybenzylidene)pyrazine-2-carbohydrazide], for which the IC50 is 0.282 µM in assay [1] and 0.245 µM in assay [2].
For `COc1cc(/C=N/NC(=O)c2cncc(-c3ccc(OCC(C)C)cc3Cl)n2)cc(OC)c1` [Compound 159, (E)-6-(2-chloro-4-isobutoxyphenyl)-N′-(3,5-dimethoxybenzylidene)pyrazine-2-carbohydrazide] the same measures were 0.293 µM and 0.217 µM.
In the same order, the values of `COc1cc(/C=N/NC(=O)c2cncc(-c3ccc(OC)cc3OCCN(C)C)n2)cc(OC)c1` [Compound 160, (E)-N′-(3,5-dimethoxybenzylidene)-6-(2-(2-(dimethylamino)ethoxy)-4-methoxyphenol)pyrazine-2-carbohydrazide] are greater than 1 µM and greater than 10 µM.
In the same order, the values of `COc1cc(/C=N/NC(=O)c2cncc(-c3ccccc3OC3CCCC3)n2)cc(OC)c1` [Compound 161, (E)-6-(2-(cyclopentyloxy)phenyl)-N′-(3,5-dimethoxybenzylidene)pyrazine-2-carbohydrazide] are greater than 1 µM and greater than 10 µM.
With `COc1cc(/C=N/NC(=O)c2cncc(Cl)n2)cc(OC)c1` [Compound 163, (E)-6-chloro-N′-(3,5-dimethoxybenzylidene)pyrazine-2-carbohydrazide], the IC50 was greater than 1 µM in assay [1] and greater than 10 µM in assay [2].
On to `COc1cc(/C=N/NC(=O)c2cnc(Cl)cn2)cc(OC)c1` [Compound 164, (E)-5-chloro-N′-(3,5-dimethoxybenzylidene)pyrazine-2-carbohydrazide], for which the half-inhibitory concentration (IC50) was greater than 1 µM in assay [1] and greater than 10 µM in assay [2].
Turning to `COc1cc(/C=N/NC(=O)c2nccnc2Cl)cc(OC)c1` [Compound 165, (E)-3-chloro-N′-(3,5-dimethoxybenzylidene)pyrazine-2-carbohydrazide], the half-maximal inhibitory concentration (IC50) in assay [1] is greater than 1 µM; in assay [2], greater than 10 µM.
For the molecule `CCc1cnc(C(=O)N/N=C/c2cc(OC)cc(OC)c2)cn1` [Compound 167, (E)-N′-(3,5-dimethoxybenzylidene)-5-ethylpyrazine-2-carbohydrazide], the IC50 is greater than 1 µM in assay [1] and greater than 10 µM in assay [2].
In the case of `COc1ccc(-c2cncc(C(=O)N(C)/N=C/c3cc(OC)cc(OC)c3)n2)cc1` [Compound 168, (E)-N′-(3,5-dimethoxybenzylidene)-6-(4-methoxyphenyl)-N-methylpyrazine-2-carbohydrazide], the IC50 in assay [1] was greater than 1 µM; in assay [2] it was greater than 10 µM.
In the same order, the values of `COc1cc(/C=N/NC(=O)c2cncc(N3CCC(F)(F)C(C)C3)n2)cc(OC)c1` (stereo not shown) [Compound 169, (E)-6-(4,4-difluoro-3-methylpiperidin-1-yl)-N′-(3,5-dimethoxybenzylidene)pyrazine-2-carbohydrazide] are greater than 1 µM and greater than 10 µM.
In the same order, the values of `CCOc1ccc(-c2cncc(C(=O)N/N=C/c3ccccc3)n2)cc1` [Compound 170, (E)-N′-benzylidene-6-(4-ethoxyphenyl)pyrazine-2-carbohydrazide] are greater than 1 µM and greater than 10 µM.
In the same order, the values of `CCOc1ccc(-c2cncc(C(=O)N/N=C/C3CCCCC3)n2)cc1` [Compound 171, (E)-N′-(cyclohexylmethylene)-6-(4-ethoxyphenyl)pyrazine-2-carbohydrazide] are greater than 1 µM and greater than 10 µM.
Consider `CCOc1ccc(-c2cncc(C(=O)N/N=C/C3CCC(F)(F)CC3)n2)cc1` [Compound 172, (E)-N′-((4,4-diflurocyclohexyl)methylene)-6-(4-ethoxyphenyl)pyrazine-2-carbohydrazide], for which the concentration for half-maximal inhibition (IC50) in assay [1] was 0.573 µM; in assay [2] it was greater than 10 µM.
For `COc1ccc(-c2cncc(C(=O)N/N=C/C3CCCCC3)n2)cc1` [Compound 173, (E)-N′-(cyclohexylmethylene)-6-(4-methoxyphenyl)pyrazine-2-carbohydrazide] the same measures were 0.629 µM and greater than 10 µM.
In the same order, the values of `CC(C)Oc1ccc(-c2cncc(C(=O)N/N=C/C3CCCCC3)n2)cc1` [Compound 175, (E)-N′-(cyclohexylmethylene)-6-(4-isopropoxyphenyl)pyrazine-2-carbohydrazide] are 0.361 µM and 0.11 µM.
`COc1cc(/C=N/NC(=O)c2cncc(-c3ccc(C(F)F)cc3)n2)cc(OC)c1` [Compound 177, (E)-6-(4-(difluoromethyl)phenyl)-N′-(3,5-dimethoxybenzylidene)pyrazine-2-carbohydrazide]: the 50% inhibitory concentration (IC50) was 0.963 µM in assay [1] and greater than 1 µM in assay [2].
For `COc1ccc(-c2cncc(C(=O)N/N=C/c3ccccc3)n2)cc1` [Compound 178, (E)-N′-benzylidene-6-(4-methoxyphenyl)pyrazine-2-carbohydrazide] the same measures were 0.358 µM and 3.19 µM.
For `COc1cc(/C=N/NC(=O)c2cncc(N3CCCC(F)(F)CC3)n2)cc(OC)c1` [Compound 179, (E)-6-(4,4-difluoroazepan-1-yl)-N′-(3,5-dimethoxybenzylidene)pyrazine-2-carbohydrazide] the same measures were greater than 1 µM and greater than 10 µM.
Take `COc1cc(/C=N/NC(=O)c2cncc(N3CCC(F)(F)CC3)n2)cc(OC)c1` [Compound 180, (E)-6-(4,4-difluoropiperidin-1-yl)-N′-(3,5-dimethoxybenzylidene)pyrazine-2-carbohyrazide]: the values for the IC50 in assay [1] and in assay [2] were greater than 1 µM and greater than 10 µM, respectively.
